Test results published in paper PMC9249674, “A small-molecule Skp1 inhibitor elicits cell death by p53-dependent mechanism” (iScience, 2022).

Legend:
[1] = target: T1, Skp1-ΔSkp2^F−box-peptide interaction (Homo sapiens, UniProt P63208); assay: FP-based in vitro competition assay; type: binding; conditions: for Ki: calculated from IC50 with Ki calculator
T1 construct: recombinantly purify intact (Skp1^WT) and truncate (ΔSkp1^1−140; lacking H8-helix) forms of Skp1; His6; made in house; host or cells: Escherichia coli BL21 (DE3)
T1 sequence (P63208 whole entry, stated change not applied, the tested form may be a part): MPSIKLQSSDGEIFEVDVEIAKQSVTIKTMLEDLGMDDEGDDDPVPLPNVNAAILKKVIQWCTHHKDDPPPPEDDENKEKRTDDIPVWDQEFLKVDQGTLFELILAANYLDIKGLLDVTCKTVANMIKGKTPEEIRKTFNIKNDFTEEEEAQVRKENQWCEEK
Description: FP measurements were performed using an EnVision multilabel Reader (Perkin Elmer). […] Lyophilized F-box-FAM peptide was initially dissolved in a Tris buffer (20 mM Tris-HCl pH 9.0, 150 mM NaCl, 2 mM DTT), and then a stock solution of 100 μM was prepared by subsequent dilutions in a FP buffer (20 mM Tris-HCl pH 8.0, 150 mM NaCl, 2 mM DTT, 5% (v/v) glycerol, 0.001% (v/v) Triton X-100). Specific controls groups included free F-box-FAM (tracer), bound F-box-FAM in the presence of protein (Skp1^WT or ΔSkp1^1−140), and FP buffer for every measurement, allowing accurate estimation of specific polarization.
The selected subset of compounds were initially assayed at final concentration of 200 μM. The compounds were incubated at room temperature with Skp1^WT for 1 hr, followed by the addition of the tracer. […] After incubation for another 2 hrs, FP signals was measured on an EnVision multilabel Reader. The FP response was measured in quadruplicates with controls including free F-box-FAM (tracer), bound Skp1^WT-F-box-FAM, and FP buffer. The resultant FP values were plotted as bar graphs using ORIGIN Lab software.
For gradient FP assay, protein samples were mixed with an appropriate concentrations of ligand over the range of several folds. […] The IC50 value of the compound in the gradient-concentration assay was determined with nonlinear regression and fitting using the following equation in GraphPad Prism® v6.0 (San Diego, CA). Y = Bottom + (Top – Bottom)/(1 + 10^X−LogIC50). […] In short, the relationship between the IC50 of the inhibitor and the Ki of the inhibitor depends on the KD of the fluorescent ligand and the concentration of the receptor.

recombinant GST = recombinant GST (Schistosoma japonicum, UniProt P08515); assay: LC-MS/MS analysis of in vitro binding, negative control protein
recombinant GST, sequence (P08515 2-218 limits assumed): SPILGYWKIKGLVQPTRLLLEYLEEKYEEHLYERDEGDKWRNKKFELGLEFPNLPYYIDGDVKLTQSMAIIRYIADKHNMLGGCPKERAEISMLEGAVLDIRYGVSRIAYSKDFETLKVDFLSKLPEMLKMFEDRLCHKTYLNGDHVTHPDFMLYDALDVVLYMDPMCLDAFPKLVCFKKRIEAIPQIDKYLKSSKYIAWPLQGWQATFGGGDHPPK

A549 cells = assay: Caspase-Glo 3/7 activity; type: cell-based, human; conditions: dose- and time-dependent treatment
Description: The activities of caspase-3/7, −8 and −9 were measured using Caspase-Glo® 3/7,8, and 9 assay kits (Promega, Madison, WI, USA) according to the manufacturer’s protocol. Briefly, the cells were plated over-night in a white 384 well microplate, and then treated as indicated with Z0933M. After treatment, 25 μL of each caspase substrate was added and incubated at room temperature for 30 min. Upon activation of caspase in the apoptotic cells, the substrate will give a luminescence signal after cleavage of the aminoluciferin-labelled synthetic tetrapeptide. Luminescent signals were detected using an EnSpire multimode plate reader (PerkinElmer). For inhibitor interventions and Skp1 overexpression, the experiments were performed in 96 well format.

Question: What does the source list for `Nc1ccc(-c2nc3ccccc3c3[nH]c4ccccc4c23)cc1` [Z0933M]?
Answer: inhibition of Skp1-ΔSkp2^F−box-peptide interaction ([1]; 200 μM compound, 25 μM Skp1^WT, 500 nM tracer): almost completely disrupted; Ki [1]: 231 ± 18 nM; Ki ([1]; figure): ~231 nM; IC50 ([1]; dose-response FP, Skp1^WT 25 μM, tracer 500 nM): ~25 µM; presence in mass spectra (non-specific binding) (recombinant GST): absent; caspase 3/7 activity (A549 cells): dose- and time-dependently induced caspase 3/7 activity
